From ChEMBL document CHEMBL4665788, “Development of Nonpeptidic Inverse Agonists of the Ghrelin Receptor (GHSR) Based on the 1,2,4-Triazole Scaffold” (J Med Chem, 2020) come the findings set out here.

Converted amounts (≈) assume the structure as drawn. The source made the active and inactive calls. No cut-off for these calls is given here.

The target of series [1] is T1, Growth hormone secretagogue receptor type 1 (Homo sapiens, UniProt Q92847). The experiment in a line: Agonist activity at SNAP-tagged human GHSR expressed in HEK293 cells assessed as stimulation of ghrelin-induced increase in IP1 accumulation at 10^-5 M measured after 30 mins by IP1-d2 derivative based HTRF assay relative to control. The format is functional, cell-based. The note with it: filed as agonist, dose 1.0 10^-5M. (TR-FRET usually uses a lanthanide donor and a delayed reading to cut background.)
T1 sequence (Q92847 whole entry): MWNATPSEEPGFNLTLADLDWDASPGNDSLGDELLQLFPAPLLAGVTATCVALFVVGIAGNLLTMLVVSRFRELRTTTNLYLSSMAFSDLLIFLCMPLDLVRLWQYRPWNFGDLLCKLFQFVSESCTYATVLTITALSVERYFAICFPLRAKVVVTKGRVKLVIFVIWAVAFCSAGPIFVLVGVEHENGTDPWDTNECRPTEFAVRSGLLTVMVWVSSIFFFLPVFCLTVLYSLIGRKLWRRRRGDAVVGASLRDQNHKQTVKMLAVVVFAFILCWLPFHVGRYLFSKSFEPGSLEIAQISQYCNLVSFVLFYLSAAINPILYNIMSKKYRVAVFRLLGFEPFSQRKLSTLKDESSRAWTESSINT

Series [2] deals with T1, Growth hormone secretagogue receptor type 1. The experiment in a line: Agonist activity at SNAP-tagged human GHSR expressed in HEK293 cells assessed as stimulation of ghrelin-induced increase in IP1 accumulation at 10^-5 M measured after 30 mins by IP1-d2 derivative based HTRF assay relative to ghrelin. The format is functional, cell-based. The note with it: filed as agonist, dose 1.0 10^-5M.

Series [3] shares this target. Particulars: HEK293, filed as inverse agonist, dose 1.0 10^-5M, time 30.0 min.
The target is the same in series [4]. The experiment in a line: Inverse agonist activity at SNAP-tagged human GHSR expressed in HEK293 cells assessed as inhibition of ghrelin-induced IP1 response measured after 30 mins by HTRF assay. The format is functional, cell-based.
Series [5] shares this target. The experiment in a line: Displacement of red-ghrelin from SNAP-tagged human GHSR expressed in HEK293 cells incubated for 3 hrs at 4 degC or for 1 hr at room temperature by HTRF assay. The format is cell-based.
Series [6] has the same target. The experiment in a line: Antagonist activity at SNAP-tagged human GHSR expressed in HEK293 cells assessed as inhibition of ghrelin-induced IP1 accumulation at 10^-5M measured after 30 mins by IP1-d2 derivative based HTRF assay relative to control. The format is functional, cell-based. The note with it: filed as antagonist, dose 1.0 10^-5M.
Series [7] has the same target. The experiment in a line: Antagonist activity at SNAP-tagged human GHSR expressed in HEK293 cells assessed as inhibition of ghrelin-induced IP1 accumulation at 10^-5M measured after 30 mins by IP1-d2 derivative based HTRF assay relative to ghrelin. The format is functional, cell-based. The note with it: filed as antagonist, dose 1.0 10^-5M.
Series [8] is described as follows: Toxicity in wild type C57BL6/J mouse assessed as effect on labored movement at 1 nmol, icv injection for 2 mins via cannula. Particulars: in vivo, icv_or_intrathecal.
Series [9] is described as follows: Toxicity in wild type C57BL6/J mouse assessed as hunched posture at 1 nmol, icv injection for 2 mins via cannula. The note with it: in vivo, icv_or_intrathecal.
Series [10] is described as follows: Toxicity in wild type C57BL6/J mouse assessed as reduced activity at 1 nmol, icv injection for 2 mins via cannula. The note with it: in vivo, icv_or_intrathecal.
Series [11] can be described thus: Toxicity in wild type C57BL6/J mouse assessed as effect on early dark cycle food intake at 1 nmol, icv injection for 2 mins via cannula measured after 5 hrs (reference value: 2591 +/- 197 mg). The note with it: in vivo, icv_or_intrathecal.
A short description of series [12]: Toxicity in wild type C57BL6/J mouse assessed as sickness-like behavior at 1 nmol, icv injection for 2 mins via cannula. Particulars: in vivo, icv_or_intrathecal.
Series [13] addresses Growth hormone secretagogue receptor type 1 (Rattus norvegicus) (UniProt O08725). The experiment in a line: Inverse agonist activity at GHSR in Wistar rat pancreatic islets assessed as suppression of ghrelin-induced inhibition of glucose-stimulated insulin secretion at 1 uM after 1 hr in presence of glucose. Particulars: Pancreas, filed as inverse agonist. The format is tissue-based.

The nature of series [14]: Toxicity in wild type C57BL6/J mouse assessed as subdued behavior at 1 nmol, icv injection for 2 mins via cannula. Particulars: in vivo, icv_or_intrathecal.
The nature of series [15]: Toxicity in wild type C57BL6/J mouse assessed as effect on body weight at 1 nmol, icv injection for 2 mins via cannula. The note with it: in vivo, icv_or_intrathecal.
Series [16] can be described thus: Anti-orexigenic activity in wild type C57BL6/J mouse assessed as reduction in ghrelin-induced food intake at 1 nmol, icv administered via cannula for 2 mins pretreated for 15 mins followed by ghrelin stimulation and measured after 2 hrs relative to control. The format is functional. Also noted: scale not given: the % may be the effect or the level left. The note with it: time 135 min, 2.25 h.

Series [17] can be described thus: Toxicity in wild type C57BL6/J mouse assessed as appearance of spiky coat at 1 nmol, icv injection for 2 mins via cannula. The note with it: in vivo, icv_or_intrathecal.
Series [18] deals with Mus musculus. The experiment in a line: Suppression of compensatory hyperphagia in wild type C57BL6/J mouse assessed as reduction in cumulative food intake at 1 nmol, icv administered at 8 hrs interval for 48 hrs followed by refeeding at 2 hrs post last dose and measured for 7 days post refeeding. The format is functional. Also noted: scale not given: the % may be the effect or the level left. The note with it: time 9 day.

Series [19] is described as follows: Solubility of the compound in water. The format is physicochemical.
A short description of series [20]: Toxicity in wild type C57BL6/J mouse assessed as altered breathing rate at 1 nmol, icv injection for 2 mins via cannula. Particulars: in vivo, icv_or_intrathecal.

Sequence of Growth hormone secretagogue receptor type 1 (Rattus norvegicus) (O08725 whole entry): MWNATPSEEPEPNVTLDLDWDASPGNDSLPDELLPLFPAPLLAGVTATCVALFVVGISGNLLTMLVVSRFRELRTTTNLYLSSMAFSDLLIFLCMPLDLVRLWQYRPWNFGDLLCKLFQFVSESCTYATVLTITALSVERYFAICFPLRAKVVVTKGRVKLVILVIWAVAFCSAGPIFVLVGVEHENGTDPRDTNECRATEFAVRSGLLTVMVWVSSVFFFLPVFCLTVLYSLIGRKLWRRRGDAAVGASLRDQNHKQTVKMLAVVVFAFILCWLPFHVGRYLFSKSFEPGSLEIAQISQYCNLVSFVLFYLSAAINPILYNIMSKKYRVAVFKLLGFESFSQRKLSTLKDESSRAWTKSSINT

Regarding `CNCC(=O)N[C@H](Cc1c[nH]c2ccccc12)c1nnc(CCc2ccccc2)n1Cc1ccc(OC)cc1`, the %max was determined as 100% in series [1] and 76% in series [2].

For `COc1ccc(/C=C(\C#N)C(=O)N[C@@H](C)C(=O)N[C@H](Cc2c[nH]c3ccccc23)c2nnc(CCc3ccccc3)n2Cc2ccc(OC)cc2)cc1`, in series [3], the Emax is 78%. Further, the EC50 (as a rule, the midpoint of the concentration-response curve) in [4] worked out at 1.4 nM. The Ki – broadly, the dissociation constant of the complex between target and ligand, obtained from inhibition or displacement – in series [5] amounted to 3 nM.

With `COc1ccc(Cn2c(CCc3ccccc3)nnc2[C@@H](Cc2c[nH]c3ccccc23)NC(=O)CN(C)C)cc1`, the %max amounted to 96% in series [1] and 76% in series [2].

`COc1ccc(Cn2c(CCc3ccccc3)nnc2[C@@H](Cc2c[nH]c3ccccc23)NC(=O)CNC(=O)/C=C/c2ccc(F)cc2)cc1`: the %max in [6] was determined as 74%; in series [7] it was 71%.

In turn, `COc1ccc(Cn2c(CCc3ccccc3)nnc2[C@@H](Cc2c[nH]c3ccccc23)NC(=O)CNC(=O)/C(C#N)=C/c2ccc(F)cc2)cc1` displayed an Emax in [3] of 76%. In addition, in series [4], the EC50 was determined as 14.2 nM. This molecule also registered a Ki in [5] of 0.6 nM.

On to `COc1ccc(Cn2c(CCc3ccccc3)nnc2[C@@H](Cc2c[nH]c3ccccc23)NC(=O)CNC(=O)C#Cc2ccccc2)cc1`, for which the %max is 95% in [1] and 69% in [2].

`COc1ccc(Cn2c(CCN3CCOCC3)nnc2[C@@H](Cc2c[nH]c3ccccc23)NC(=O)CNC(=O)/C(C#N)=C/c2ccccc2)cc1` showed an Emax in series [3] of 49%.

The molecule `CCN(CC)CCc1nnc([C@@H](Cc2c[nH]c3ccccc23)NC(=O)CNC(=O)/C(C#N)=C/c2ccc(OC)cc2)n1Cc1ccc(OC)cc1` came in with an Emax in series [3] of 69%. In addition, the EC50 in series [4] turned out to be 35 nM. The Ki in series [5] is 10 nM.

`COc1ccc(Cn2c(CCc3ccccc3)nnc2[C@@H](Cc2c[nH]c3ccccc23)NC(=O)CNC(=O)/C(C#N)=C/c2ccc(O)cc2)cc1` had an Emax in series [3] of 83%. Besides, the Activity entry in series [8] was “Non-Toxic”; in series [9], “Non-Toxic”; in series [10], “Non-Toxic”; in series [11] it was 2179 mg; in [12] it was “Non-Toxic”; in [14], “Non-Toxic”. The Activity result in series [15] was “Non-Toxic”; in series [16], 30.3%; in series [17] it was “Non-Toxic”; in series [18] it was 12.4%; in [20], “Non-Toxic”. Further, in [4], the concentration giving a half-maximal response (EC50) worked out at 27 nM. Besides, in [13], the outcome was Active. In addition, the solubility – broadly, how much of the substance goes into solution per volume – in series [19] (buffer) is given as “Soluble”. In addition, in series [5], the affinity, expressed as Ki, was 3 nM.

As for `COc1ccc(Cn2c(CCN3CCOCC3)nnc2[C@@H](Cc2c[nH]c3ccccc23)NC(=O)CNC(=O)/C(C#N)=C/c2ccc(N(C)C)cc2)cc1`, the Emax in series [3] amounted to 64%. Also, the EC50 in series [4] turned out to be 6 nM. This molecule yielded a Ki in series [5] of 6.3 nM.

Molecule `COc1ccc(Cn2c(CCc3ccccc3)nnc2[C@@H](Cc2c[nH]c3ccccc23)NC(=O)CNC(=O)/C(C#N)=C/c2c[nH]c3ccccc23)cc1` displayed an Emax in series [3] of 79%. In [4], the EC50 is 28 nM. The molecule also had an inhibitory constant (Ki) in series [5] of 6.3 nM.

`COc1ccc(Cn2c(CCc3ccccc3)nnc2[C@@H](Cc2c[nH]c3ccccc23)NC(=O)CNC(=O)/C(C#N)=C/c2ccc(C)cc2)cc1`: the Emax in series [3] is 82%. Also, the half-maximal effective concentration (EC50) in series [4] came to 21.5 nM. Moreover, in series [5], the Ki amounted to 1 nM.

Regarding `COc1ccc(Cn2c(CCc3ccccc3)nnc2[C@@H](Cc2c[nH]c3ccccc23)NC(=O)CNC(=O)C(C)(C)C#N)cc1`, the %max in series [6] and in series [7] was 70% in each case.

The molecule `COc1ccc(/C=C(\C#N)C(=O)OCC(=O)N[C@H](Cc2c[nH]c3ccccc23)c2nnc(CCc3ccccc3)n2Cc2ccc(OC)cc2)cc1` showed a Ki in [5] of 13 nM.

In series [3], `COc1ccc(/C=C(\C#N)C(=O)NCCC(=O)N[C@H](Cc2c[nH]c3ccccc23)c2nnc(CCc3ccccc3)n2Cc2ccc(OC)cc2)cc1` registered an Emax of 75%. Besides, in series [4], the EC50 stood at 3.6 nM. Further, affinity in series [5] was put at a Ki of 14 nM.

As for `CC(C)C[C@H](NC(=O)[C@H](CC(C)C)NC(=O)[C@@H](Cc1c[nH]c2ccccc12)NC(=O)[C@H](Cc1ccccc1)NC(=O)[C@@H](Cc1cccc2ccccc12)NC(=O)[C@@H](N)CCCCN)C(N)=O`, the Activity entry in [8] is given as “Non-Toxic”; in series [9], “Non-Toxic”; in [10] it was “Non-Toxic”; in series [11], 2623 mg; in [12], “Non-Toxic”; in series [14] it was “Non-Toxic”. The Activity result is reported as “Non-Toxic” in series [15]; 67.6% in [16]; “Non-Toxic” in [17]; 20.1% in series [18]; “Non-Toxic” in series [20].

`COc1ccc(Cn2c(CCc3c[nH]c4ccccc34)nnc2[C@@H](Cc2c[nH]c3ccccc23)NC(=O)CNC(=O)/C(C#N)=C/c2ccc(O)cc2)cc1` showed a Ki in series [5] of 30 nM.

`COc1ccc(/C=C(\C#N)C(=O)NCC(=O)N[C@H](Cc2c[nH]c3ccccc23)c2nnc(CCc3c[nH]c4ccccc34)n2Cc2ccc(OC)cc2)cc1`: the solubility in series [19] (water, read-out: solubility) worked out at 3.8 µg/mL (≈ 5.19 µM).

Take `COc1ccc(Cn2c(CCc3ccccc3)nnc2[C@@H](Cc2c[nH]c3ccccc23)NC(=O)CN)cc1`: the %max in series [6] and in [7] was 65% throughout.

Consider `COc1ccc(CC(N)C(=O)NCC(=O)N[C@H](Cc2c[nH]c3ccccc23)c2nnc(CCc3ccccc3)n2Cc2ccc(OC)cc2)cc1` (single isomer, unassigned), for which the Emax in series [3] is 43%. Moreover, the concentration giving a half-maximal response (EC50) in [4] was 62 nM. This molecule also returned an inhibition constant (Ki) in series [5] of 17 nM.

In [3], `COc1ccc(/C=C(\C#N)C(=O)NCC(=O)N[C@H](Cc2c[nH]c3ccccc23)c2nnc(CCc3ccccc3)n2Cc2ccc(OC)cc2)cc1` registered an Emax of 86%. Further, in series [4], the 50% effective concentration (EC50) amounted to 50 nM. For the same molecule, the affinity in series [5] corresponds to a Ki of 0.5 nM.

Consider `COc1ccc(Cn2c(CCc3ccccc3)nnc2[C@@H](Cc2c[nH]c3ccccc23)NC(=O)CNC(=O)C(C#N)Cc2ccccc2)cc1` (stereo not given in full), for which the figures for the %max in series [6] and in series [7] were 72% and 70%, respectively.

Regarding `COc1ccc(Cn2c(CCc3ccccc3)nnc2[C@@H](Cc2c[nH]c3ccccc23)NC(=O)CNC(=O)/C(C#N)=C/c2ccc(N(C)C)cc2)cc1`, the Emax in [3] is 78%. The concentration for a half-maximal effect (EC50) in [4] was 89 nM. Besides, the affinity in series [5] corresponds to a Ki of 2.4 nM.
